Legend:
[1] = tested on: morphine analgesia-non-effective Wistar rats; assay: Effect of enhancing morphine analgesia, tail-flick latency (Test 2); format: in vivo, rat; conditions: 250 mg/kg test compound i.p., 10 minutes later 0.5 mg/kg morphine i.p.; versus 0.5 mg/kg morphine alone; tail-flick latency
Experimental: Effect of enhancing morphine analgesia was tested.
To Wistar rats (10 week-age, male, body weight 250~300 g) was given intraperitoneally morphine at a dose of 0.5 mg/kg, and these rats receiving the morphine were classified into the group of morphine analgesia-effective rats and the group of morphine analgesia-non-effectiverats according to the classification method described in the "Showa Igakukai Zasshi" Vol. 39, No. 5, pages 537~542 (1979). […] The effect of analgesia was evaluated according to the method of tail-flick latency of rats described in the "Showa Igakukai Zasshi" Vol. 39, No. 5, pages 537~542 (1979). The evaluation of pain threshold of rats according to the tail-flick latency method was made as follows: Radiant heat stimulus was applied to the region of the rat tail which positioned 1 cm away from the tail tip and which had been colored black with a black-dye, and the time of latency involved in the tail flick, namely the period of time lapsing between the time of application of the heat stimulus and the time of the reflective flick response of the tail was measured. The quantity of the heat applied was so controlled that the average time of latency of the tail-flick response appearing in the control group of rats (receiving neither the test compound nor the morphine) was about 2.0 seconds. The tests were accomplished as long as the maximum value for the tail-flick latency was 7.0 seconds or less, as otherwise the skin of the rat tail could be damaged by the application of heat. In other words, if the time for the tail-flick latency was longer than 7.0 seconds, the tests were stopped to prevent the damage of the rat tail. The radiant heat stimulus was repeated 5 times for each test rat at an interval of 15 minutes and the times of latency in the flick response of the tail measured in each test were averaged. In each test, 5 rats were used.
The difference in the time of the tail-flick latency between the test rats (receiving 250 mg/kg of the test compound plus 0.5 mg/kg of morphine) and the control rats (receiving 0.5 mg/kg of morphine alone) was calculated, and the effect for enhancement of morphine analgesia was estimated in term of the value of percentages which were calculated by the following equation: [formula]

[2] = molecular target: T1, enkephalinase (Rattus norvegicus, UniProt P07861); assay: Inhibitory activity against enkephalinase (Test 1); format: biochemical; conditions: enkephalinase from corpus striatum of rat brain; substrate methionine-enkephaline; 37° C., 1 hour; pH 7.7
T1 construct: homogenizing corpus striatum of rat brain and by partial purification of the brain homogenate; from tissue; host or cells: rat brain corpus striatum, homogenate partially purified by the method of Gorenstein et al
T1 sequence (P07861 1-750): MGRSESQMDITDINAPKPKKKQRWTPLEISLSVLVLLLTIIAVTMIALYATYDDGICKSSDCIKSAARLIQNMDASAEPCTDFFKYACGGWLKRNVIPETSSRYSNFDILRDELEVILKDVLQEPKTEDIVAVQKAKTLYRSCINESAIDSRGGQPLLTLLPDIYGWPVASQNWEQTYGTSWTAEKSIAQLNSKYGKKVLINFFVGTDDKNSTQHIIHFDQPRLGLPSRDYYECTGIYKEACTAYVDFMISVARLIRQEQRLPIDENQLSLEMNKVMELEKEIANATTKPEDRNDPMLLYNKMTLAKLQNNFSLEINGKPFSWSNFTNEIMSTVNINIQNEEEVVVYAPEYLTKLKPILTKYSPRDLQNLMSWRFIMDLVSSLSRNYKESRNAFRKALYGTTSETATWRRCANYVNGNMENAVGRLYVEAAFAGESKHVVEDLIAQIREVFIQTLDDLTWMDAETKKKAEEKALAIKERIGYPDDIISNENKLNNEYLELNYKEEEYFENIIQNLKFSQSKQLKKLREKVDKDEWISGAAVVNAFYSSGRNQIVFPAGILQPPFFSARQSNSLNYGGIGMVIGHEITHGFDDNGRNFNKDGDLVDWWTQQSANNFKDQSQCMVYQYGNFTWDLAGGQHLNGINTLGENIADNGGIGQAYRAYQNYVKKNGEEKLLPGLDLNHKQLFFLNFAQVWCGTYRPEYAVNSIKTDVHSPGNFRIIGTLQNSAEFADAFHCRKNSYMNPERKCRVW
Experimental: Inhibitory activity against enkephalinase were tested.
A preparation of enkephalinase was made by homogenizing corpus striatum of rat brain and by partial purification of the brain homogenate according to the method of Gorenstein et al (see the "Life Science" Vol. 25, 2065~2070 (1979) Pergamon Press, U.S.A.).
A test compound was dissolved in a mixture of Trishydrochloride buffered solution (pH 7.7) and an aqueous 1% Triton X100 (an active surfectant) to such a concentration that the added quantity of the test compound amounted to one-tenth of the volume of said mixture. To the solution of the test compound so prepared was added the enkephalinase, followed by incubation for five minutes at ambient temperature and further by addition of methionine-enkephaline as the substrate. The admixture so obtained was incubated at 37° C. for 1 hour and then subjected to a high-performance liquid chromatography in such a manner that the Tyr-Gly-GLy (a fragment of the methionine-enkephaline) formed by the enzymatic degradation of methionine-enkephaline was isolated in some fractions of the eluate and the quantity of Tyr-Gly-GLy was determined by an electro-chemically analysing detector. In this way, IC50 value of the test compound, namely the dose of the test compound required for 50% inhibition of the enkephalinase was measured.

SMILES	Morphine Analgesia enhancement [1] [%]	IC50 [2] [µM]
N[C@H](Cc1ccccc1)[C@H](O)C(=O)N[C@H](Cc1ccccc1)[C@H](O)C(=O)O [Compound 12, (2S,3R)-3-N--[(2'S,3'R)-3'-amino-2'-hydroxy-4'-phenylbutanoyl]amino-2-hydroxy-4-phenylbutanoic acid]	15.7	> 20000
C[C@@H](NC=O)C(=O)N[C@H](Cc1ccccc1)[C@H](O)C(=O)[O-].[Na+] [Compound 15, (2S,3R)-3-N--(N'--formyl-(R)-alanyl)amino-2-hydroxy-4-phenylbutanoic acid sodium salt]	19.7	150
C[C@@H](N)C(=O)N[C@H](Cc1ccccc1)[C@H](O)C(=O)O [Compound 14, (2S,3R)-3-N--(R)-alanylamino-2-hydroxy-4-phenylbutanoic acid]	16.8	2140
NCC[C@H](O)C(=O)N[C@H](Cc1ccccc1)[C@H](O)C(=O)O [Compound 11, (2S,3R)-3-N--[4'-amino-(2'S)--2'-hydroxybutanoyl]amino-2-hydroxy-4-phenylbutanoic acid]	21.6	1280
N[C@H](Cc1ccccc1)C(=O)N[C@H](Cc1ccc(O)cc1)[C@H](O)C(=O)O [Compound 17, (2S,3R)-3-N--(R)-phenylalanylamino-2-hydroxy-4-p-hydroxy-phenylbutanoic acid]	32.1	130
COC(=O)[C@@H](O)[C@@H](Cc1ccccc1)NC(=O)CN.Cl [Compound 2, (2S,3R)-3-N--glycylamino-2-hydroxy-4-phenylbutanoic acid methyl ester hydrochloride]	11.6	300
CC(=O)NCC(=O)NCC(=O)N[C@H](Cc1ccccc1)[C@H](O)C(=O)[O-].[Na+] [Compound 13, (2S,3R)-3-N--(N'--acetylglycylglycyl)amino-2-hydroxy-4-phenylbutanoic acid sodium salt]	33.1	–
CNCC(=O)N[C@H](Cc1ccccc1)[C@H](O)C(=O)O [Compound 7, (2S,3R)-3-N--(N'--methylglycyl)amino-2-hydroxy-4-phenylbutanoic acid]	16.2	–
CC(C)C[C@H](NC(=O)[C@@H](O)[C@H](N)Cc1ccccc1)C(=O)O [Bestatin, (2S,3R)-3-amino-2-hydroxy-4-phenylbutanoyl-(S)-leucine, reference compound]	19.9	590
CC(C)C[C@@H](N)C(=O)N[C@H](Cc1ccccc1)[C@@H](O)C(=O)O [Compound 18, (2R,3R)-3-N--(R)-leucylamino-2-hydroxy-4-phenylbutanoic acid]	23.4	2650
COC(=O)[C@@H](O)[C@@H](Cc1ccccc1)NC(=O)CNC(C)=O [Compound 3, (2S,3R)-3-N--(N'--acetylglycyl)amino-2-hydroxy-4-phenylbutanoic acid methyl ester]	22.9	5480
N[C@@H](Cc1ccc(O)cc1)C(=O)NCC(=O)NCC(=O)N[C@@H](Cc1ccccc1)[C@@H](O)C(=O)O [Compound 16, (2R,3S)--3-N--(S)--tyrosylglycylglycylamino-2-hydroxy-4-phenylbutanoic acid]	15.2	440
CC(C)C[C@@H](N)C(=O)N[C@H](Cc1ccccc1)[C@H](O)C(=O)O [Compound 9, (2S,3R)-3-N--(R)-leucylamino-2-hydroxy-4-phenylbutanoic acid]	26.3	2480
CC(C)C[C@H](N)C(=O)N[C@H](Cc1ccccc1)[C@H](O)C(=O)O [Compound 8, (2S,3R)-3-N--(S)--leucylamino-2-hydroxy-4-phenylbutanoic acid]	22.5	2560
NCC(=O)N[C@H](Cc1ccccc1)[C@H](O)C(=O)O [Compound 1, (2S,3R)-3-N--glycylamino-2-hydroxy-4-phenylbutanoic acid]	25.7	2780
COC(=O)[C@@H](O)[C@@H](Cc1ccccc1)NC(=O)CNC(=O)CN.Cl [Compound 5, (2S,3R)-3-N--glycylglycylamino-2-hydroxy-4-phenylbutanoic acid methyl ester hydrochloride]	19.0	1520
NCC(=O)NCC(=O)N[C@H](Cc1ccccc1)[C@H](O)C(=O)O [Compound 4, (2S,3R)-3-N--glycylglycylamino-2-hydroxy-4-phenylbutanoic acid]	10.6	240
CC(=O)NCC(=O)NCC(=O)N[C@H](Cc1ccccc1)[C@H](O)C(=O)O [Compound 6, (2S,3R)-3-N--(N'--acetylglycylglycyl)amino-2-hydroxy-4-phenylbutanoic acid]	32.5	2450

From patent US4474764A, “3-Amino-2-hydroxy-4-phenylbutanoic acid derivatives and pharmaceutical composition containing the same” (Zaidan Hojin Biseibutsu Kagaku Kenkyu Kai, priority 1981, dated 1984)
